Measurements as given in patent EP0226513A1, “Peptides capable of inhibiting interactions between antigens and lymphocytes T4, products derived therefrom and their applications” (INSTITUT PASTEUR, priority 1985, dated 1987).
Where no end group is shown, it is not given here.

Columns and labels:
[1] = test system: interactions entre les macrophages et les lymphocytes auxiliaires (lymphocytes T4) et entre les lymphocytes T4 et les lymphocytes B; test: In vitro cell interaction tests in the system of FISHER et al (influenza virus); assay type: cell-based; details: individually or in synergy tests
lymphocytes T = test: T-lymphocyte proliferation test induced by influenza virus A/Bangkok, fresh cells (tritiated thymidine incorporation); assay type: cell-based, humain; details: result in words
[2] = test system: lymphocytes T, lymphocytes B, monocytes; assay type: cell-based, humain; details: result in words; b210: peptides of different length compared, 0,1-10 µg/ml
lymphocytes T, monocytes = test: Proliferation after separate preincubation of purified T lymphocytes and monocytes with peptides or antibodies (synergy of inhibition); assay type: cell-based, humain; details: T lymphocytes preincubated with the labelled substance, monocytes preincubated with "T₄-12"; sub-inhibitory concentrations
Experimental: Les monocytes sont obtenus après adhérence des cellules mononucléées (10⁷ /ml) sur boîte de Pétri (Corning) pendant une heure à 37°C. Ces boîtes de Pétri ont été préalablement incubées à 4°C avec du SVF décomplémenté, durant la nuit. Après avoir récupéré les cellules non adhérentes, les cellules adhérentes sont dé-tachées avec un barreau caoutchouté (rubber policeman) et par un pipettage vigoureux. Après deux lavages, elles sont irradiées à 4000 rads (IBL 137, source CS-137, CEA).
Les monocytes restants sont séparés des cellules non adhérentes par un traitement à la L-méthylleucine ester (5.10⁶ /ml, 5 mM final, Sigma) 40 minutes à tempé-rature ambiante (18). La réaction est arrêtée par addition de sérum AB humain (10 % final et lavages à froid).
Les lymphocytes T et B sont séparés par la technique des rosettes E. Les cellules T étant capables de former des rosettes en présence de globules rouges de mouton sensibilisés à la neuraminidase, après une incubation d'une heure à 0°C. Les cellules formant rosettes (E⁺) seront séparées des cellules ne formant pas rosettes (E⁻ ou B) par sédimentation sur gradient Ficoll-Hypaque. Les globules rouges de mouton sont lysés par choc hypotonique.
d'incubation des populations lymphoïdes purifiées avec les peptides ou des anticorps monoclonaux spécifiques des molé-cules T₄ et HLA-DR ont été effectuées. […]

Molecule	capacité d'inhiber in vitro les interactions entre les macrophages et les lymphocytes T4 et entre les lymphocytes T4 et les lymphocytes B [1]	inhibition de la prolifération spécifique du virus influenza des lymphocytes T (lymphocytes T)	inhibition de la production d'anticorps anti-influenza [2]	synergie d'inhibition de la prolifération (lymphocytes T, monocytes)
LRFDSD [XIV, H₂N―――LRFDSD―――OH]	capables			
LRFDSDL [DR-7, H₂N-LRFDSDL-OH]		intermédiaires	puis and intermédiaires	intermédiaire
CC(C)[C@H](N)C(=O)N[C@@H](CCCNC(=N)N)C(=O)N[C@@H](Cc1ccccc1)C(=O)N[C@@H](CC(=O)O)C(=O)N[C@@H](CO)C(=O)N[C@@H](CC(=O)O)C(=O)O [XIII, H₂N-VRFDSD-OH]	capables			
